IC50 data for 33 compounds are collected here from US20190071416A1, “COMPOUNDS FOR TREATMENT OF CANCER AND EPIGENETICS” (Agency For Science, Technology and Research, priority 2015, published 2019).

For this assay, the target named is T1, SMYD3 (Homo sapiens, UniProt Q9H7B4).
T1 sequence (Q9H7B4 1-428): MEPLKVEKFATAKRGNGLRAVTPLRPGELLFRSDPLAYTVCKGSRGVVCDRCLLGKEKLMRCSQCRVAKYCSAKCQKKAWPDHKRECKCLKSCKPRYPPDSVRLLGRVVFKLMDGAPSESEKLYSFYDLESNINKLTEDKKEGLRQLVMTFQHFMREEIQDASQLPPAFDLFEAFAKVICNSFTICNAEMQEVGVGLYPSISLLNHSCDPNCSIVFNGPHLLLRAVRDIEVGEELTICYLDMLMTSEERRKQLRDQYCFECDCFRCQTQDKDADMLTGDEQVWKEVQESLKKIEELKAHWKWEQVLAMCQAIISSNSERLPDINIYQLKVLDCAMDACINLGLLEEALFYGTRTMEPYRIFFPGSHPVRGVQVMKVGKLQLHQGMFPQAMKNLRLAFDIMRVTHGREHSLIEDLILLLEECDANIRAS
The assay is described as follows: SMYD3 biochemical assay (MTase-Glo, MAP3K2 peptide substrate). The settings on record: Table 3; MTase assay, MAP3K2 peptide substrate; read-out: IC50. The gist of the method: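 Luminescent readout of SAH production (coupled SAH→ATP conversion, MTase-Glo) after SMYD3 reacted 30 min at room temperature with 1.0 µM SAM and 10 µM MAP3K2 peptide, both final. Non-linear regression gave IC50 values.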
Regarding `CCCOC(=O)N1CCN(C(=O)c2ccc3c(Cl)cc(-c4cccc(C(N)=O)c4)nc3c2)CC1` [B033, Propyl 4-(2-(3-carbamoylphenyl)-4-chloroquinoline-7-carbonyl)piperazine-1-carboxylate], the IC50 (usually the concentration needed to halve the response being measured) came out at 210 nM.
As for `CCCOC(=O)N1CCN(C(=O)c2ccc3c(Cl)c(C)c(-c4ccc(OC)cc4)nc3c2)C[C@@H]1C` [B034, Propyl (S)-4-(4-chloro-2-(4-methoxyphenyl)-3-methylquinoline-7-carbonyl)-2-methylpiperazine-1-carboxylate], the figure is 120 nM; as for `CCCOC(=O)N1CCN(C(=O)c2ccc3c(Cl)c(C)c(-c4cccc(C(N)=O)c4)nc3c2)CC1` [B035, Propyl 4-(2-(3-carbamoylphenyl)-4-chloro-3-methylquinoline-7-carbonyl)piperazine-1-carboxylate], 1000 nM.
With `CCCOC(=O)N1CCN(C(=O)c2ccc3c(Cl)c(C)c(-c4ccc(OC)cc4)nc3c2)C[C@H]1C` [B036, Propyl (R)-4-(4-chloro-2-(4-methoxyphenyl)-3-methylquinoline-7-carbonyl)-2-methylpiperazine-1-carboxylate] the figure was 150 nM.
With `CCCOC(=O)N1CCN(C(=O)c2ccc3c(Cl)c(C)c(-c4ccc(C#N)cc4)nc3c2)CC1` [B037, Propyl 4-(4-chloro-2-(4-cyanophenyl)-3-methylquinoline-7-carbonyl)piperazine-1-carboxylate] the figure was 1800 nM.
As to `CCCOC(=O)N1CCN(C(=O)c2ccc3c(Cl)c(C)c(-c4cccc(CN)c4)nc3c2)CC1` [B038, Propyl 4-(2-(3-(aminomethyl)phenyl)-4-chloro-3-methylquinoline-7-carbonyl)piperazine-1-carboxylate], the IC50 was 99 nM.
As for `CCCOC(=O)N1CCN(C(=O)c2ccc3c(Cl)cc(-c4cccc(CN)c4)nc3c2)CC1` [B039, Propyl 4-(2-(3-(aminomethyl)phenyl)-4-chloroquinoline-7-carbonyl)piperazine-1-carboxylate], the figure is 91 nM; as for `CCCOC(=O)N1CCN(C(=O)c2ccc3c(Cl)cc(Nc4ccccc4)nc3c2)CC1` [B040, Propyl 4-(4-chloro-2-(phenylamino)quinoline-7-carbonyl)piperazine-1-carboxylate], 3200 nM; as for `CCCOC(=O)N1CCN(C(=O)c2ccc3c(Cl)cc(Nc4ccc(OC)cc4)nc3c2)CC1` [B041, Propyl 4-(4-chloro-2-((4-methoxyphenyl)amino)quinoline-7-carbonyl)piperazine-1-carboxylate], 1200 nM.
As for `CCCOC(=O)N1CCN(C(=O)c2ccc3c(Cl)cc(Nc4cccnc4)nc3c2)CC1` [B042, Propyl 4-(4-chloro-2-(pyridin-3-ylamino)quinoline-7-carbonyl)piperazine-1-carboxylate], the figure is 3100 nM.
With `CCCOC(=O)N1CCN(C(=O)c2ccc3c(Cl)c(C)c(-c4cccc([N+](=O)[O-])c4)nc3c2)CC1` [B043, Propyl 4-(4-chloro-3-methyl-2-(3-nitrophenyl)quinoline-7-carbonyl)piperazine-1-carboxylate] the figure was 2400 nM.
For the compound `CCCOC(=O)N1CCN(C(=O)c2ccc3c(Cl)c(C)c(-c4cccc(N)c4)nc3c2)CC1` [B044, Propyl 4-(2-(3-aminophenyl)-4-chloro-3-methylquinoline-7-carbonyl)piperazine-1-carboxylate], the IC50 worked out at 45 nM.
With `CCCOC(=O)N1CCN(C(=O)c2ccc3c(Cl)cc(-c4ccc(OC)cc4)nc3c2)C[C@H]1C` [B045, Propyl (R)-4-(4-chloro-2-(4-methoxyphenyl)quinoline-7-carbonyl)-2-methylpiperazine-1-carboxylate] the figure was 440 nM; with `CCCOC(=O)N1CCN(C(=O)c2ccc3c(Cl)cc(-c4ccc(OC)cc4)nc3c2)CC1` [B046, Propyl 4-(4-chloro-2-(4-methoxyphenyl)quinoline-7-carbonyl)piperazine-1-carboxylate], 260 nM.
As for `CCCOC(=O)N1CCN(C(=O)c2ccc3c(Cl)cc(-c4ccc(OC)cc4)nc3c2)[C@@H](C)C1` [B047, Propyl (S)-4-(4-chloro-2-(4-methoxyphenyl)quinoline-7-carbonyl)-3-methylpiperazine-1-carboxylate], the figure is 230 nM; as for `CCCOC(=O)N1CCN(C(=O)c2ccc3c(Cl)cc(-c4cc(F)cc(F)c4)nc3c2)CC1` [B048, Propyl 4-(4-chloro-2-(3,5-difluorophenyl)quinoline-7-carbonyl)piperazine-1-carboxylate], 3000 nM; as for `CCCOC(=O)N1CCN(C(=O)c2ccc3c(Cl)cc(-c4cccc(F)c4)nc3c2)CC1` [B049, Propyl 4-(4-chloro-2-(3-fluorophenyl)quinoline-7-carbonyl)piperazine-1-carboxylate], 1000 nM.
With `CCCOC(=O)N1CCN(C(=O)c2ccc3c(Cl)cc(-c4ccc(N5CCCC5)cc4)nc3c2)CC1` [B050, Propyl 4-(4-chloro-2-(4-(pyrrolidin-1-yl)phenyl)quinoline-7-carbonyl)piperazine-1-carboxylate] the figure was 790 nM; with `CCCOC(=O)N1CCN(C(=O)c2ccc3c(Cl)ccnc3c2)CC1` [B051, Propyl 4-(4-chloroquinoline-7-carbonyl)piperazine-1-carboxylate], 3200 nM; with `CCCOC(=O)N1CCN(C(=O)c2ccc3c(Cl)cc(-c4ccc(C)cc4)nc3c2)C[C@H]1C` [B052, Propyl (R)-4-(4-chloro-2-(p-tolyl)quinoline-7-carbonyl)-2-methylpiperazine-1-carboxylate], 770 nM.
For `CCCOC(=O)N1CCN(C(=O)c2ccc3c(Cl)cc(-c4cccc(C(N)=O)c4)nc3c2)C[C@H]1C` [B053, Propyl (R)-4-(2-(3-carbamoylphenyl)-4-chloroquinoline-7-carbonyl)-2-methylpiperazine-1-carboxylate], the IC50 came out at 180 nM.
With `CCCOC(=O)N1CCN(C(=O)c2ccc3c(Cl)cc(-c4cccc(CN)c4)nc3c2)C[C@H]1C` [B054, Propyl (R)-4-(2-(3-(aminomethyl)phenyl)-4-chloroquinoline-7-carbonyl)-2-methylpiperazine-1-carboxylate] the figure was 100 nM; with `CCCOC(=O)N1CCN(C(=O)c2ccc3c(Cl)cc(-c4ccc(N(C)C)cc4)nc3c2)CC1` [B055, Propyl 4-(4-chloro-2-(4-(dimethylamino)phenyl)quinoline-7-carbonyl)piperazine-1-carboxylate], 350 nM.
Take `CCCOC(=O)N1CCN(C(=O)c2ccc3c(Cl)c(C)c(-c4cccc(N)c4)nc3c2)C[C@H]1C` [B056, Propyl (R)-4-(2-(3-aminophenyl)-4-chloro-3-methylquinoline-7-carbonyl)-2-methylpiperazine-1-carboxylate]: the IC50 was 120 nM.
With `C#Cc1ccc(-c2cc(Cl)c3ccc(C(=O)N4CCN(C(=O)OCCC)CC4)cc3n2)cc1` [B057, Propyl 4-(4-chloro-2-(4-ethynylphenyl)quinoline-7-carbonyl)piperazine-1-carboxylate] the figure was 930 nM; with `CCCOC(=O)N1CCN(C(=O)c2ccc3c(Cl)cc(-c4cccc(N(C)C)c4)nc3c2)CC1` [B058, Propyl 4-(4-chloro-2-(3-(dimethylamino)phenyl)quinoline-7-carbonyl)piperazine-1-carboxylate], 1470 nM.
As for `C#Cc1ccc(-c2cc(Cl)c3ccc(C(=O)N4CCN(C(=O)OCCC)[C@H](C)C4)cc3n2)cc1` [B059, Propyl (R)-4-(4-chloro-2-(4-ethynylphenyl)quinoline-7-carbonyl)-2-methylpiperazine-1-carboxylate], the half-maximal inhibitory concentration (IC50) was 1000 nM.
As for `CCCOC(=O)N1CCN(C(=O)c2ccc3c(Cl)cc(-c4ccc(N(C)C)cc4)nc3c2)C[C@H]1C` [B060, Propyl (R)-4-(4-chloro-2-(4-(dimethylamino)phenyl)quinoline-7-carbonyl)-2-methylpiperazine-1-carboxylate], the IC50 came out at 420 nM.
With `CCCOC(=O)N1CCN(C(=O)c2ccc3c(Cl)cc(-c4cccc(N(C)C)c4)nc3c2)C[C@H]1C` [B061, Propyl (R)-4-(4-chloro-2-(3-(dimethylamino)phenyl)quinoline-7-carbonyl)-2-methylpiperazine-1-carboxylate] the figure was 870 nM.
Consider `CCCOC(=O)N1CCN(C(=O)c2ccc3c(Cl)cc(-c4ccc(C#N)cc4)nc3c2)C[C@H]1C` [B062, Propyl (R)-4-(4-chloro-2-(4-cyanophenyl)quinoline-7-carbonyl)-2-methylpiperazine-1-carboxylate], for which the IC50 was found to be 340 nM.
As to `CCCOC(=O)N1CCN(C(=O)c2ccc3c(Cl)cc(-c4ccc(C(N)=O)cc4)nc3c2)C[C@H]1C` [B063, Propyl (R)-4-(2-(4-carbamoylphenyl)-4-chloroquinoline-7-carbonyl)-2-methylpiperazine-1-carboxylate], the IC50 is 80 nM.
As for `CCCOC(=O)N1CCN(C(=O)c2ccc3c(Cl)cc(-c4ccc(CN)cc4)nc3c2)C[C@H]1C` [B064, Propyl (R)-4-(2-(4-(aminomethyl)phenyl)-4-chloroquinoline-7-carbonyl)-2-methylpiperazine-1-carboxylate], the figure is 57 nM; as for `CCCOC(=O)N1CCN(C(=O)c2ccc3c(Cl)cc(-c4ccc(F)cc4)nc3c2)CC1` [B065, Propyl 4-(4-chloro-2-(4-fluorophenyl)quinoline-7-carbonyl)piperazine-1-carboxylate], 560 nM.
